How the values were obtained:
K18PL tau [1] = target: T1, K18PL tau (Homo sapiens, UniProt P10636, P618L); experiment: Heparin-induced K18PL tau fibrillization assay monitored by ThT fluorescence; format: biochemical; conditions: Table 4; for inhibition at 80 µM: highest tested concentration (80 μM), read-out: Tau ThT Assay % Inhib.; for IC50: logarithm of IC50, K18PL tau ThT fluorescence inhibition, read-out: Tau ThT Assay Log IC50 (converted)
T1 construct: (K18PL; amino acids 244-369); made in house
Experimental: Tau fibril formation reactions were performed essentially as described (Crowe, A., Ballatore, C., Hyde, E., Trojanowski, J. Q., and Lee, V. M. Y. (2007) Biochemical and Biophysical Research Communications 358, 1-6). K18PL (2 μl of a 30 μM stock that also contained 0.24 μM Alexa Red-labeled K18PL) was dispensed into black 1536-well plates (Grenier) using a solenoid-based dispenser. Following transfer of 23 nL of test compound or DMSO vehicle by a pin tool from compound library plates, 2 μl/well of 40 μM heparin in reagent buffer was dispensed and the plate was centrifuged for 15 s at 1000 rpm in a table-top centrifuge. The fibrillization reaction proceeded for 6 hours at 37° C. in a humidified incubator (Kalypsys).
K18PL fibril formation was quantified with a ThT assay as previously described (Crowe, A., Ballatore, C., Hyde, E., Trojanowski, J. Q., and Lee, V. M. Y. (2007) Biochemical and Biophysical Research Communications 358, 1-6). Briefly, 1 μl/well of 62.5 μM ThT (Sigma) in 100 mM glycine, pH 8.5 (12.5 μM final concentration) was dispensed into 1536-well plates after completion of the fibrillization reaction and incubated at room temperature for 1 hour. Plates were read on an Envision fluorescence plate reader with an excitation of 450 nm and an emission setting of 510 nm.
Compound effects on tau assembly were determined for the ThT and FP assays using the formula 1−(Fcompound− FDMSO)/( Fcontrol− FDMSO), where Fcontrol denotes the median plate fluorescence values (ThT assay) or mP values (FP assay) of the non-fibrillizing K18 KD control wells, FDMSO denotes the median value of the DMSO control wells, and Fcompound denotes the compound well values. The resulting values were multiplied by 100 to obtain the percent inhibition of tau fibril formation.
(§1) The solubility of test compounds in the sodium acetate buffer used for subsequent fibrillization reactions was determined by turbidimetric measurements. Compounds were then evaluated in a heparin-induced tau assembly assay, in which the fibrillization of the truncated K18 tau fragment (comprised of four MT-binding repeats) bearing the P301L mutation (K18PL) found in FTDP-17, was monitored by thioflavine-T (ThT) binding and fluorescence (FIG. 3A). (Crowe, A.; et al., Identification of aminothienopyridazine inhibitors of tau assembly by quantitative high-throughput screening. Biochemistry 2009, 48, 7732-45.) The inhibitory activity of test compounds was then confirmed with an orthogonal sedimentation assay in which compound-treated fibrillizing mixtures were centrifuged and quantitation of K18PL tau in the soluble and insoluble fraction was performed by densitometric analyses of SDS-PAGE (FIG. 3B). […] Thus, the tau fibrillization assay was repeated in which both DMSO- and compound-treated mixtures were initially centrifuged for 30 min. prior to incubation (i.e., at time zero of the fibrillization reaction) to remove any pelletable material.

K18PL tau [2] = target: T1, K18PL tau; experiment: K18PL tau centrifugation (sedimentation) assay, SDS-PAGE densitometry; format: biochemical; conditions: Table 4; K18PL tau centrifugation assay
Experimental: The determination of compound-induced effects on the amount of tau that remains soluble upon centrifugation, and EM visualization of tau species following incubation with test compounds, were as previously described (Crowe, A., Ballatore, C., Hyde, E., Trojanowski, J. Q., and Lee, V. M. Y. (2007) Biochemical and Biophysical Research Communications 358, 1-6).
as §1

T1 sequence (P10636 561-686 P618L): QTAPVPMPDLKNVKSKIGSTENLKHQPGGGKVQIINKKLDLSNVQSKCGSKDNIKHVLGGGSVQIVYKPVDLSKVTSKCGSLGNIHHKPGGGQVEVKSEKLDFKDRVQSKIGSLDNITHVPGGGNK

Structure (SMILES)	melting point [°C]	inhibition at 80 µM (K18PL tau [1]) [%]	IC50 (K18PL tau [1]) [µM]	Tau Cent. Assay % Soluble (K18PL tau [2]) [%]
CCOC(=O)c1nn(-c2ccc(N(C)C)cc2)c(=O)c2c(N)scc12 [CNDR-51359, Ethyl 5-amino-3-(4-(dimethylamino)phenyl)-4-oxo-3,4-dihydrothieno[3,4-d]pyridazine-1-carboxylate]	211 to 213	68	3.16	70
CCOC(=O)c1nn(-c2ccc(N=[N+]=[N-])cc2)c(=O)c2c(N)scc12 [CNDR-51412, Ethyl 5-amino-3-(4-azidophenyl)-4-oxo-3,4-dihydrothieno[3,4-d]pyridazine-1-carboxylate]	169 to 170	80	6.31	51
CCOC(=O)c1ccccc1-n1nc(C(=O)OCC)c2csc(N)c2c1=O [CNDR-51419, Ethyl 5-amino-3-(2-(ethoxycarbonyl)phenyl)-4-oxo-3,4-dihydrothieno[3,4-d]pyridazine-1-carboxylate]	176 to 178	65	1.26	40
CCOC(=O)c1cccc(-n2nc(C(=O)OCC)c3csc(N)c3c2=O)c1 [CNDR-51420, Ethyl 5-amino-3-(3-(ethoxycarbonyl)phenyl)-4-oxo-3,4-dihydrothieno[3,4-d]pyridazine-1-carboxylate]	159 to 160	74	2	83

Now from value to compound:

melting point [°C]	inhibition at 80 µM (K18PL tau [1]) [%]	IC50 (K18PL tau [1]) [µM]	Tau Cent. Assay % Soluble (K18PL tau [2]) [%]	Structure (SMILES)
203 to 205	100	6.31	66	CCOC(=O)c1nn(-c2ccccc2Br)c(=O)c2c(N)scc12 [CNDR-51421, Ethyl 5-amino-3-(2-bromophenyl)-4-oxo-3,4-dihydrothieno[3,4-d]pyridazine-1-carboxylate]
163 to 165	87	1	67	CCOC(=O)c1nn(-c2cccc(Br)c2)c(=O)c2c(N)scc12 [CNDR-51422, Ethyl 5-amino-3-(3-bromophenyl)-4-oxo-3,4-dihydrothieno[3,4-d]pyridazine-1-carboxylate]
190 to 191	80	1.26	29	CCOC(=O)c1nn(-c2cccc(C)c2)c(=O)c2c(N)scc12 [CNDR-51423, Ethyl 5-amino-4-oxo-3-(m-tolyl)-3,4-dihydrothieno[3,4-d]pyridazine-1-carboxylate]
